In PubChem BioAssay (NCI):
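Tested at 5 concentrations; 48 h exposure; 96-well plates; endpoints linearly interpolated, else capped at highest concentration. GI50: concentration for 50% inhibition of growth. TGI marks complete inhibition of growth.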

Assays:
Assay in all cases: NCI tumour cell line growth inhibition, 48 h; in the data active = GI50 below about 0.43 µM; inactive = the rest
[1] = test system: MOLT-4 leukemia
[2] = test system: HL-60(TB) leukemia
[3] = test system: NCI-H23 lung
[4] = test system: SR leukemia
[5] = test system: EKVX NSCLC
[6] = test system: COLO 205 colon
[7] = test system: RPMI-8226 leukemia
[8] = test system: OVCAR-8 ovarian
[9] = test system: 786-0 renal
[10] = test system: HCT-116 colon
[11] = test system: HS 578T breast
[12] = test system: NCI-H226 lung
[13] = test system: NCI-H460 lung
[14] = test system: CAKI-1 renal
[15] = test system: IGROV1 ovarian
[16] = test system: T-47D breast
[17] = test system: SF-295 CNS
[18] = test system: RXF 393 renal
[19] = test system: SF-268 CNS
[20] = test system: HT29 colon
[21] = test system: U251 CNS
[22] = test system: MCF7 breast
[23] = test system: OVCAR-3 ovarian
[24] = test system: SNB-19 CNS
[25] = test system: DU-145 prostate
[26] = test system: TK-10 renal
[27] = test system: MDA-MB-435
[28] = test system: A498 renal
[29] = test system: OVCAR-4 ovarian
[30] = test system: SNB-75 CNS
[31] = test system: K-562 leukemia
[32] = test system: NCI/ADR-RES ovarian
[33] = test system: A549 NSCLC
[34] = test system: SN12C renal
[35] = test system: UACC-62 melanoma
[36] = test system: NCI-H522 lung
[37] = test system: HOP-92 NSCLC
[38] = test system: M14 melanoma
[39] = test system: MDA-MB-231 breast
[40] = test system: ACHN renal
[41] = test system: CCRF-CEM leukemia
[42] = test system: SK-MEL-5 melanoma
[43] = test system: OVCAR-5 ovarian
[44] = test system: LOX IMVI melanoma
[45] = test system: SK-MEL-28 melanoma
[46] = test system: BT-549 breast
[47] = test system: UACC-257 melanoma
[48] = test system: SW-620 colon
[49] = test system: KM12 colon
[50] = test system: SK-OV-3 ovarian
[51] = test system: MALME-3M melanoma
[52] = test system: HOP-62 NSCLC
[53] = test system: UO-31 renal
[54] = test system: HCC-2998 colon
[55] = test system: PC-3 prostate
[56] = test system: HCT-15 colon
[57] = test system: SF-539 CNS

FC(F)(F)c1cccc(Nc2nccc(-c3cnn4nc(-c5ccccc5)ccc34)n2)c1
> 20.9 µM: TGI [39]
> 17.7 µM: TGI [44]
14.8 µM: TGI [10]
> 21.7 µM: TGI [32]
24.5 µM: TGI [38]
10 µM: TGI [18]
inactive: GI50 [1] > 16.5 µM | GI50 [2] > 25 µM | GI50 [3] 9.13 µM | GI50 [4] 2.15 µM | GI50 [5] > 21.2 µM | GI50 [6] 11.8 µM | GI50 [7] 12.9 µM | GI50 [8] 6.54 µM | GI50 [9] 5.22 µM | GI50 [10] 5.92 µM | GI50 [11] 7.38 µM | GI50 [12] > 25 µM | GI50 [13] 5.23 µM | GI50 [14] 10.2 µM | GI50 [15] 11.4 µM | GI50 [16] 8.33 µM | GI50 [17] > 16.6 µM | GI50 [18] 4.63 µM | GI50 [19] 10.3 µM | GI50 [20] 6.88 µM | GI50 [21] 4.58 µM | GI50 [22] 6.82 µM | GI50 [23] 5.24 µM | GI50 [24] > 17.1 µM | GI50 [25] 7.1 µM | GI50 [26] 9.22 µM | GI50 [27] 10.4 µM | GI50 [28] > 14 µM | GI50 [29] 5.18 µM | GI50 [30] 3.91 µM | GI50 [31] > 16.3 µM | GI50 [32] 8.37 µM | GI50 [33] 5.36 µM | GI50 [34] > 13.5 µM | GI50 [35] 14.4 µM | GI50 [36] 6.88 µM | GI50 [37] 3.54 µM | GI50 [38] 12 µM | GI50 [39] 5.58 µM | GI50 [40] 6.71 µM | GI50 [41] > 17.9 µM | GI50 [42] 14.7 µM | GI50 [43] > 22.9 µM | GI50 [44] 6.18 µM | GI50 [45] 8.11 µM | GI50 [46] 18.8 µM | GI50 [47] 15.8 µM | GI50 [48] 8.65 µM | GI50 [49] 6.46 µM | GI50 [50] > 22.6 µM | GI50 [51] 7.23 µM | GI50 [52] 8.1 µM | GI50 [53] 10.8 µM | GI50 [54] 23.5 µM | GI50 [55] 8.48 µM | GI50 [56] 8.5 µM | GI50 [57] 6.59 µM
11.2 µM: TGI [9]
10.3 µM: TGI [29]
> 20.3 µM: TGI [11]
> 25 µM: TGI [1] | TGI [2] | TGI [3] | TGI [4] | TGI [5] | TGI [6] | TGI [7] | TGI [12] | TGI [14] | TGI [15] | TGI [16] | TGI [17] | TGI [22] | TGI [24] | TGI [27] | TGI [28] | TGI [31] | TGI [34] | TGI [35] | TGI [41] | TGI [42] | TGI [43] | TGI [46] | TGI [47] | TGI [50] | TGI [54]
> 19.2 µM: TGI [19] | TGI [26]
> 23.1 µM: TGI [53]
> 18.4 µM: TGI [8] | TGI [20]
> 19.6 µM: TGI [49]
10.9 µM: TGI [37]
> 20.7 µM: TGI [52]
10.1 µM: TGI [21]
> 18.5 µM: TGI [36]
> 18.7 µM: TGI [57]
9.6 µM: TGI [30]
11 µM: TGI [23]
> 20.4 µM: TGI [45]
> 14.3 µM: TGI [33]
24.4 µM: TGI [56]
> 17.4 µM: TGI [25]
> 20.8 µM: TGI [55]
11.1 µM: TGI [13]
> 18 µM: TGI [40]
> 21.4 µM: TGI [48]
14.1 µM: TGI [51]
